{"source": "patent US12419898B2", "about": "“Synergistic composition for maintenance of healthy balance of microflora” (Kimberly-Clark Worldwide, Inc., priority 2015, dated 2025)"}
{"system": "L. crispatus and E. coli", "experiment": "Therapeutic effect protocol: L. crispatus / E. coli co-culture in LAPT-g media supplemented with therapeutic agents", "assay_type": "cell-based", "conditions": "anaerobic, 37° C., measured 36 hours after inoculation, agent w/vol % as given per sample", "method": "Therapeutic Effect Protocol\nColonies of L. crispatus and E. coli were prepared as follows. A colony of L. crispatus was transferred to 7 ml MRS broth and incubated anaerobically (using BD GasPak EZ anaerobe container system with indicator) at 37° C. without shaking for 18-20 hours. A colony of E. coli was transferred to 5 ml TSB broth and incubated aerobically (shaking at 100 rpm) at 37° C. for 18-20 hours.\nColonies were then inoculated as follows. Bacterial cultures were gently vortexed and 1 mL of each culture was transferred to a corresponding 2.0 mL micro-centrifuge tube and then centrifuged for two minutes at 14,500 rpm. The cultural supernatant was removed and the cell pellet was re-suspended in 1 mL of 0.95% (wt/vol %) saline. The re-suspended colony was then centrifuged for two minutes at 14,500 rpms and the supernatant was removed. For L. crispatus, the pellet was re-suspended in 1 mL of 0.95% saline to achieve ˜10^7-10^8 cfu/mL. For E. coli the pellet was re-suspended in 1 mL of 0.95% saline to achieve ˜10^8-10^9 cfu/mL.\nMedia were prepared as follows.\nAll of the ingredients in Table 1 were combined and the pH was adjusted to 6.5. The media were then autoclaved for 20 minutes at 125° C. To evaluate the effect of various therapeutic agents on the growth of bacteria the LAPT-g media, prepared as described above, was supplemented with various therapeutic agents to a final test concentration between 0.1 and 1.0%.\nFive milliliters (5 mL) of each medium was transferred to a test tube in duplicates for subsequent inoculation. A master mixture of L. crispatus and E. coli, prepared as described above, was prepared in 1,000:1 ratio. Each (5 ml) test tube was inoculated with the master mixture to give 10^5-10^6 total CFU L. crispatus and 100-1,000 total CFU E. coli per tube.\nTo establish a negative control, one tube was vortexed and 100 μL was removed to determine the initial cell concentrations by serial dilutions and plating (2 plates per dilution). L. crispatus is selected on MRS agar plates incubated anaerobically at 37° C. for two days. E. coli is selected on TSA plates incubated aerobically at 37° C. for one day. The co-cultures were incubated in an anaerobic container with BD GasPaks at 37° C. for 36 hours.\nThe effect of the carbon source on the ratio of L. crispatus to E. coli was measured 36 hours after inoculation. The co-culture tube was vortexed and 100 μL was removed to determine the final cell concentrations by serial dilutions and plating (2 plates per dilution). L. crispatus is selected on MRS agar plates incubated anaerobically at 37° C. for two days. E. coli is selected on TSA plates incubated aerobically at 37° C. for one day.\nInventive samples were prepared by supplementing LAPT-g media, prepared as described above, with various therapeutic agents as described in Table 2, below. The therapeutic effect of the formulation was then measured using the assay described above in the Test Methods section above. The therapeutic effect is summarized below as the ratio of L. crispatus to E. coi."}
{"smiles": "OC[C@H]1O[C@@H](O[C@@H]2[C@@H](CO)OC(O)(CO)[C@H]2O)[C@H](O)[C@@H](O)[C@H]1O", "note": "(mixture of isomers) [Sample 28, Lactulose]", "L. crispatus/E. coli ratio": 3.9}
{"smiles": "O=CC[C@H](O)[C@H](O)CO", "note": "[Sample 21, 2-Deoxy-D-Ribose]", "L. crispatus/E. coli ratio": 1.7}
{"smiles": "CO[C@H]1O[C@H](CO)[C@@H](O)[C@H](O)[C@H]1O", "note": "[Sample 22, α-Methyl-D-Glucoside]", "L. crispatus/E. coli ratio": 3}
{"smiles": "OC[C@H]1O[C@@H]2O[C@H]3[C@H](O)[C@@H](O)[C@@H](O[C@H]4[C@H](O)[C@@H](O)[C@@H](O[C@H]5[C@H](O)[C@@H](O)[C@@H](O[C@H]6[C@H](O)[C@@H](O)[C@@H](O[C@H]7[C@H](O)[C@@H](O)[C@@H](O[C@H]1[C@H](O)[C@H]2O)O[C@@H]7CO)O[C@@H]6CO)O[C@@H]5CO)O[C@@H]4CO)O[C@@H]3CO", "note": "[Sample 23, α-Cyclodextrin]", "L. crispatus/E. coli ratio": 6.5}
{"smiles": "O=C[C@@H](O)[C@H](O)[C@H](O)CO", "note": "[Sample 24, D-Arabinose]", "L. crispatus/E. coli ratio": 2.2}
{"smiles": "O.O.OC[C@H]1O[C@H](O[C@H]2O[C@H](CO)[C@@H](O)[C@H](O)[C@H]2O)[C@H](O)[C@@H](O)[C@@H]1O", "note": "[Sample 26, D-Trehalose]", "L. crispatus/E. coli ratio": 30.1}
{"smiles": "O=C(O)CC(O)C(=O)O", "note": "(centres unmarked) [Sample 29, Malic acid]", "L. crispatus/E. coli ratio": 30.7}
{"smiles": "OCc1ccccc1O[C@@H]1O[C@H](CO)[C@@H](O)[C@H](O)[C@H]1O", "note": "[Sample 32, Salicin]", "L. crispatus/E. coli ratio": 1.5}
